# Measured values: patent publication US20100298141A1, “SUBSTITUTED PYRIDINE N-OXIDE HERBICIDES” (E. I. DU PONT DE NEMOURS AND COMPANY, priority 2007, published 2010)
# What was measured:
# green foxtail = assay: Test C pre-/postemergence test; format: in vivo, Setaria viridis; details: for Plant response rating, Foxtail, Green: 31 g ai/ha, scale 0 to 100 (0 no effect, 100 complete control)
# Procedure, shortened: (§1)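 Compounds in a non-phytotoxic solvent with surfactant applied preemergence to seeded pots and, at the same time, postemergence to plants 2–18 cm tall (1- to 4-leaf stage). Paddy tests: pots flooded to 3 cm, compound applied into the water, depth held throughout.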
# Surinam grass = assay: Test C pre-/postemergence test; format: in vivo, Brachiaria decumbens; details: for Plant response rating, Surinam Grass: 31 g ai/ha, scale 0 to 100 (0 no effect, 100 complete control)
# Procedure, shortened: as §1
# catchweed bedstraw = assay: Test C pre-/postemergence test; format: in vivo, Galium aparine; details: for Plant response rating, Galium: 31 g ai/ha, scale 0 to 100 (0 no effect, 100 complete control)
# Procedure, shortened: as §1
# barnyardgrass [1] = assay: Test A pre-/postemergence greenhouse test; format: in vivo, Echinochloa crus-galli; details: for Plant response rating, Barnyardgrass: 0 to 100 scale where 0 is no effect and 100 is complete control; for Barnyardgrass plant response rating: 0 to 100 scale
# Procedure, shortened: (§2)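 Greenhouse herbicide screen, pre- and postemergence in parallel. Soil: loam plus sand. Formulation: non-phytotoxic solvent mix with surfactant. Postemergence stage: one to two leaves, 2–10 cm height. Evaluation: visual injury, compared with untreated controls, about 10 days after treatment.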
# barnyardgrass [2] = assay: Test C flooded paddy test; format: in vivo, Echinochloa crus-galli; details: Flood
# Procedure, shortened: (§3)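 Pots were flooded to 3 cm above the soil surface at treatment, compound applied directly to the paddy water, and that depth held throughout. Plants were kept in a greenhouse for 13 to 15 days, then visually rated against untreated controls.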
# common ragweed = assay: Test C pre-/postemergence test; format: in vivo, Ambrosia elation; details: for Plant response rating, Ragweed: 31 g ai/ha, scale 0 to 100 (0 no effect, 100 complete control)
# Procedure, shortened: as §1
# crabgrass = assay: Test A pre-/postemergence greenhouse test; format: in vivo, Digitaria sanguinalis; details: for Plant response rating, Crabgrass, Large: 0 to 100 scale where 0 is no effect and 100 is complete control; for Crabgrass, Large plant response rating: 0 to 100 scale
# Procedure, shortened: as §2
# duck salad = assay: Test C flooded paddy test; format: in vivo, Heteranthera limosa; details: Flood
# Procedure, shortened: as §3
# downy brome = assay: Test C pre-/postemergence test; format: in vivo, Bromus tectorum; details: for Plant response rating, Bromegrass, Downy: 31 g ai/ha, scale 0 to 100 (0 no effect, 100 complete control)
# Procedure, shortened: as §1
# soybean = assay: Test C pre-/postemergence test; format: in vivo, Glycine max; details: for Plant response rating, Soybean: 31 g ai/ha, scale 0 to 100 (0 no effect, 100 complete control)
# Procedure, shortened: as §1
# velvetleaf [3] = assay: Test C pre-/postemergence test; format: in vivo, Abutilon theophrasti; details: for Plant response rating, Velvetleaf: 31 g ai/ha, scale 0 to 100 (0 no effect, 100 complete control)
# Procedure, shortened: as §1
# velvetleaf [4] = assay: Test A pre-/postemergence greenhouse test; format: in vivo, Abutilon theophrasti; details: for Plant response rating, Velvetleaf: 0 to 100 scale where 0 is no effect and 100 is complete control; for Velvetleaf plant response rating: 0 to 100 scale
# Procedure, shortened: as §2
# blackgrass = assay: Test C pre-/postemergence test; format: in vivo, Alopecurus myosuroides; details: for Plant response rating, Blackgrass: 31 g ai/ha, scale 0 to 100 (0 no effect, 100 complete control)
# Procedure, shortened: as §1
# lambsquarters = assay: Test C pre-/postemergence test; format: in vivo, Chenopodium album; details: for Plant response rating, Lambsquarters: 31 g ai/ha, scale 0 to 100 (0 no effect, 100 complete control)
# Procedure, shortened: as §1
# pigweed = assay: Test C pre-/postemergence test; format: in vivo, Amaranthus retroflexus; details: for Plant response rating, Pigweed: 31 g ai/ha, scale 0 to 100 (0 no effect, 100 complete control)
# Procedure, shortened: as §1
# giant foxtail = assay: Test A pre-/postemergence greenhouse test; format: in vivo, Setaria faberi; details: for Plant response rating, Foxtail, Giant: 0 to 100 scale where 0 is no effect and 100 is complete control; for Foxtail, Giant plant response rating: 0 to 100 scale
# Procedure, shortened: as §2
# woolly cupgrass = assay: Test C pre-/postemergence test; format: in vivo, Eriochloa villosa; details: for Plant response rating, Cupgrass, Woolly: 31 g ai/ha, scale 0 to 100 (0 no effect, 100 complete control)
# Procedure, shortened: as §1
# [5] = 62 g ai/ha, Preemergence, scale 0 to 100
# [6] = 125 g ai/ha, preemergence, scale 0 (no effect) to 100 (complete control)
# [7] = preemergence, 250 g ai/ha, scale 0 (no effect) to 100 (complete control)
# [8] = Postemergence, 500 g ai/ha, 0 is no effect, 100 is complete control
# [9] = Preemergence, 125 g ai/ha, 0 no effect, 100 complete control
# [10] = Preemergence, 500 g ai/ha, 0 no effect, 100 complete control
# [11] = 62 g ai/ha, scale 0 to 100 (0 no effect, 100 complete control)
# [12] = 250 g ai/ha, scale 0 to 100, 0 no effect, 100 complete control, 13 to 15 days
compound,measurement,setting,value
CCc1cc[n+]([O-])c([S+]([O-])Cc2c(C(F)(F)F)nn(C)c2OC(F)F)c1 (stereo not drawn) [Compound 101],"Foxtail, Green plant response rating",green foxtail; [5],95
same,"Foxtail, Green plant response rating",green foxtail; [6],98
same,"Plant response rating, Foxtail, Green",green foxtail; Preemergence,85
same,"Foxtail, Green plant response rating",green foxtail; [7],100
same,Surinam Grass plant response rating,Surinam grass; [5],80
same,Surinam Grass plant response rating,Surinam grass; [6],95
same,"Plant response rating, Surinam Grass",Surinam grass; Preemergence,60
same,Surinam Grass plant response rating,Surinam grass; [7],98
same,Galium plant response rating,catchweed bedstraw; [5],50
same,Galium plant response rating,catchweed bedstraw; [6],98
same,"Plant response rating, Galium",catchweed bedstraw; Preemergence,0
same,Galium plant response rating,catchweed bedstraw; [7],100
same,"Plant response rating, Barnyardgrass","barnyardgrass [1]; Postemergence, 125 g ai/ha",80
same,Barnyardgrass plant response rating,barnyardgrass [1]; [8],90
same,Barnyardgrass plant response rating,barnyardgrass [1]; [9],90
same,Barnyardgrass plant response rating,barnyardgrass [1]; [10],100
same,"Plant response rating, Barnyardgrass",barnyardgrass [2]; [11],0
same,"Plant response rating, Barnyardgrass",barnyardgrass [2]; [12],70
same,Ragweed plant response rating,common ragweed; [5],10
same,Ragweed plant response rating,common ragweed; [6],100
same,"Plant response rating, Ragweed",common ragweed; Preemergence,0
same,Ragweed plant response rating,common ragweed; [7],100
same,"Plant response rating, Crabgrass, Large","crabgrass; Postemergence, 125 g ai/ha",60
same,"Crabgrass, Large plant response rating",crabgrass; [8],90
same,"Crabgrass, Large plant response rating",crabgrass; [9],90
same,"Crabgrass, Large plant response rating",crabgrass; [10],100
same,"Plant response rating, Ducksalad",duck salad; [11],0
same,"Plant response rating, Ducksalad",duck salad; [12],80
same,"Bromegrass, Downy plant response rating",downy brome; [5],45
same,"Bromegrass, Downy plant response rating",downy brome; [6],90
same,"Plant response rating, Bromegrass, Downy",downy brome; Preemergence,40
same,"Bromegrass, Downy plant response rating",downy brome; [7],100
same,Soybean plant response rating,soybean; [5],60
same,Soybean plant response rating,soybean; [6],75
same,"Plant response rating, Soybean",soybean; Preemergence,0
same,Soybean plant response rating,soybean; [7],85
same,Velvetleaf plant response rating,velvetleaf [3]; [5],30
same,Velvetleaf plant response rating,velvetleaf [3]; [6],40
same,"Plant response rating, Velvetleaf",velvetleaf [3]; Preemergence,0
same,Velvetleaf plant response rating,velvetleaf [3]; [7],95
same,"Plant response rating, Velvetleaf","velvetleaf [4]; Postemergence, 125 g ai/ha",70
same,Velvetleaf plant response rating,velvetleaf [4]; [8],90
same,Velvetleaf plant response rating,velvetleaf [4]; [9],80
same,Velvetleaf plant response rating,velvetleaf [4]; [10],100
same,Blackgrass plant response rating,blackgrass; [5],30
same,Blackgrass plant response rating,blackgrass; [6],70
same,"Plant response rating, Blackgrass",blackgrass; Preemergence,0
same,Blackgrass plant response rating,blackgrass; [7],90
same,Lambsquarters plant response rating,lambsquarters; [5],100
same,Lambsquarters plant response rating,lambsquarters; [6],100
same,"Plant response rating, Lambsquarters",lambsquarters; Preemergence,80
same,Lambsquarters plant response rating,lambsquarters; [7],100
same,Pigweed plant response rating,pigweed; [5],50
same,Pigweed plant response rating,pigweed; [6],95
same,"Plant response rating, Pigweed",pigweed; Preemergence,50
same,Pigweed plant response rating,pigweed; [7],98
same,"Plant response rating, Foxtail, Giant","giant foxtail; Postemergence, 125 g ai/ha",80
same,"Foxtail, Giant plant response rating",giant foxtail; [8],90
same,"Foxtail, Giant plant response rating",giant foxtail; [9],100
same,"Foxtail, Giant plant response rating",giant foxtail; [10],100
same,"Cupgrass, Woolly plant response rating",woolly cupgrass; [5],80
same,"Cupgrass, Woolly plant response rating",woolly cupgrass; [6],85
same,"Plant response rating, Cupgrass, Woolly",woolly cupgrass; Preemergence,40
same,"Cupgrass, Woolly plant response rating",woolly cupgrass; [7],95
CCc1cc[n+]([O-])c(S(=O)(=O)Cc2c(C(F)(F)F)nn(C)c2OC(F)F)c1 [Compound 102],"Foxtail, Green plant response rating",green foxtail; [5],95
same,"Foxtail, Green plant response rating",green foxtail; [6],98
same,"Plant response rating, Foxtail, Green",green foxtail; Preemergence,85
same,"Foxtail, Green plant response rating",green foxtail; [7],100
same,Surinam Grass plant response rating,Surinam grass; [5],70
same,Surinam Grass plant response rating,Surinam grass; [6],70
same,"Plant response rating, Surinam Grass",Surinam grass; Preemergence,65
same,Surinam Grass plant response rating,Surinam grass; [7],95
same,Galium plant response rating,catchweed bedstraw; [5],95
same,Galium plant response rating,catchweed bedstraw; [6],100
same,"Plant response rating, Galium",catchweed bedstraw; Preemergence,30
same,Galium plant response rating,catchweed bedstraw; [7],100
same,"Plant response rating, Barnyardgrass","barnyardgrass [1]; Postemergence, 125 g ai/ha",70
same,Barnyardgrass plant response rating,barnyardgrass [1]; [8],80
same,Barnyardgrass plant response rating,barnyardgrass [1]; [9],80
same,Barnyardgrass plant response rating,barnyardgrass [1]; [10],100
same,"Plant response rating, Barnyardgrass",barnyardgrass [2]; [11],0
same,"Plant response rating, Barnyardgrass",barnyardgrass [2]; [12],0
same,Ragweed plant response rating,common ragweed; [5],80
same,Ragweed plant response rating,common ragweed; [6],85
same,"Plant response rating, Ragweed",common ragweed; Preemergence,75
same,Ragweed plant response rating,common ragweed; [7],95
same,"Plant response rating, Crabgrass, Large","crabgrass; Postemergence, 125 g ai/ha",60
same,"Crabgrass, Large plant response rating",crabgrass; [8],90
same,"Crabgrass, Large plant response rating",crabgrass; [9],90
same,"Crabgrass, Large plant response rating",crabgrass; [10],90
same,"Plant response rating, Ducksalad",duck salad; [11],0
same,"Plant response rating, Ducksalad",duck salad; [12],80
same,"Bromegrass, Downy plant response rating",downy brome; [5],100
same,"Bromegrass, Downy plant response rating",downy brome; [6],100
same,"Plant response rating, Bromegrass, Downy",downy brome; Preemergence,50
same,"Bromegrass, Downy plant response rating",downy brome; [7],100
same,Soybean plant response rating,soybean; [6],65
same,"Plant response rating, Soybean",soybean; Preemergence,50
same,Soybean plant response rating,soybean; [7],80
same,Velvetleaf plant response rating,velvetleaf [3]; [5],30
same,Velvetleaf plant response rating,velvetleaf [3]; [6],80
same,"Plant response rating, Velvetleaf",velvetleaf [3]; Preemergence,0
same,Velvetleaf plant response rating,velvetleaf [3]; [7],95
same,"Plant response rating, Velvetleaf","velvetleaf [4]; Postemergence, 125 g ai/ha",70
same,Velvetleaf plant response rating,velvetleaf [4]; [8],90
same,Velvetleaf plant response rating,velvetleaf [4]; [9],70
same,Velvetleaf plant response rating,velvetleaf [4]; [10],100
same,Blackgrass plant response rating,blackgrass; [5],80
same,Blackgrass plant response rating,blackgrass; [6],80
same,"Plant response rating, Blackgrass",blackgrass; Preemergence,10
same,Lambsquarters plant response rating,lambsquarters; [5],80
same,Lambsquarters plant response rating,lambsquarters; [6],100
same,"Plant response rating, Lambsquarters",lambsquarters; Preemergence,40
same,Lambsquarters plant response rating,lambsquarters; [7],100
same,Pigweed plant response rating,pigweed; [5],95
same,Pigweed plant response rating,pigweed; [6],100
same,"Plant response rating, Pigweed",pigweed; Preemergence,60
same,Pigweed plant response rating,pigweed; [7],100
same,"Plant response rating, Foxtail, Giant","giant foxtail; Postemergence, 125 g ai/ha",80
same,"Foxtail, Giant plant response rating",giant foxtail; [8],90
same,"Foxtail, Giant plant response rating",giant foxtail; [9],90
same,"Foxtail, Giant plant response rating",giant foxtail; [10],100
same,"Cupgrass, Woolly plant response rating",woolly cupgrass; [5],85
same,"Cupgrass, Woolly plant response rating",woolly cupgrass; [6],85
same,"Plant response rating, Cupgrass, Woolly",woolly cupgrass; Preemergence,50
same,"Cupgrass, Woolly plant response rating",woolly cupgrass; [7],95
